How the values were obtained:
[1] = Isoprenaline-induced cardiac hypertrophy in rats (heart weight/body weight); type: in vivo, Male Wistar rats; conditions: 2.4 mg/kg/d, Alzet mini pump, 4 days; vs NaCl controls
Procedure: (§1) Male Wistar rats were treated with isoprenaline (ISO, 2.4 mg/kg/d, Alzet mini pump) for 4 days. Controls were infused with NaCl. […] To gain further insight into the mechanism by which CARP expression is regulated, isolated myocytes were treated with ISO (1 μM) and phenylephrine (PE, 50 μM). For comparison the effects of the alpha-adrenoceptor agonist phenylephrine (PE, 50 μM) were studied.

CARP mRNA [2] = assay: CARP mRNA expression in left ventricular myocardium of treated rats, Northern blot; type: in vivo, Male Wistar rats; conditions: 2.4 mg/kg/d, 4 days
Procedure: as §1

CARP protein [3] = assay: CARP protein in treated rats, Western blot; type: in vivo, Male Wistar rats; conditions: 2.4 mg/kg/d, 4 days
Procedure: as §1

CARP protein [4] = assay: CARP protein levels in isolated myocytes treated with adrenoceptor agonists; type: cell-based; conditions: ISO 1 μM, PE 50 μM, n=4
Procedure: as §1

CARP mRNA [5] = assay: CARP mRNA levels in isolated myocytes treated with adrenoceptor agonists and kinase inhibitors; type: cell-based; conditions: for CARP mRNA/GAPDH mRNA: ISO 1 μM (n=9), PE 50 μM (n=11); for reversal of the effects of ISO and PE on CARP mRNA expression: ISO 1 μM, PE 50 μM
Procedure: as §1

Structure (SMILES)	CARP/CSQ (CARP protein level) (CARP protein [4])	CARP mRNA/GAPDH mRNA (CARP mRNA [5])	reversal of the effects of ISO and PE on CARP mRNA expression (CARP mRNA [5])	also measured
CC(C)NCC(O)c1ccc(O)c(O)c1 (centres unmarked) [ISO, isoprenaline]	161±10 % of control	148±10 % of control	–	increase in heart weight/body weight ratio [1]: 40%; CARP mRNA/GAPDH mRNA (CARP mRNA [2]; LV myocardium, n=6, NaCl control 1.3±0.12): 3.1±0.5; increase in CARP mRNA expression in left ventricular (LV) myocardium (CARP mRNA [2]; Northern blot, vs NaCl): 140%; increase in CARP protein (CARP protein [3]; Western blot, vs NaCl): 50%; CARP/calsequestrin (CARP protein [3]; n=6, NaCl control 0.41±0.03): 0.61±0.07
C[S+]([O-])c1ccc(-c2nc(-c3ccncc3)c(-c3ccc(F)cc3)[nH]2)cc1 (centres unmarked) [SB203580]	–	–	not	–
N#CC(=C(/N)Sc1ccccc1N)/C(C#N)=C(\N)Sc1ccccc1N [U0126]	–	–	completely reversed	–
CNC[C@H](O)c1cccc(O)c1 [PE, phenylephrine]	172±7 % of control	178±20 % of control	–	–

— patent US20040014706A1, “Use of carp inhibitors for the treatment of heart diseases” (priority 2000, published 2004)
